{"source": "ChEMBL document CHEMBL5465560", "about": "“Selectivity Literature for EUbOPEN Chemogenomic Library” (2024)", "key": {"[1]": {"molecular_target": "ALK tyrosine kinase receptor (Homo sapiens, UniProt Q9UM73)", "details": "at 10 µM"}, "[2]": {"molecular_target": "T1, Serine/threonine-protein kinase D3 (Homo sapiens) (UniProt O94806)", "T1 sequence (whole entry)": "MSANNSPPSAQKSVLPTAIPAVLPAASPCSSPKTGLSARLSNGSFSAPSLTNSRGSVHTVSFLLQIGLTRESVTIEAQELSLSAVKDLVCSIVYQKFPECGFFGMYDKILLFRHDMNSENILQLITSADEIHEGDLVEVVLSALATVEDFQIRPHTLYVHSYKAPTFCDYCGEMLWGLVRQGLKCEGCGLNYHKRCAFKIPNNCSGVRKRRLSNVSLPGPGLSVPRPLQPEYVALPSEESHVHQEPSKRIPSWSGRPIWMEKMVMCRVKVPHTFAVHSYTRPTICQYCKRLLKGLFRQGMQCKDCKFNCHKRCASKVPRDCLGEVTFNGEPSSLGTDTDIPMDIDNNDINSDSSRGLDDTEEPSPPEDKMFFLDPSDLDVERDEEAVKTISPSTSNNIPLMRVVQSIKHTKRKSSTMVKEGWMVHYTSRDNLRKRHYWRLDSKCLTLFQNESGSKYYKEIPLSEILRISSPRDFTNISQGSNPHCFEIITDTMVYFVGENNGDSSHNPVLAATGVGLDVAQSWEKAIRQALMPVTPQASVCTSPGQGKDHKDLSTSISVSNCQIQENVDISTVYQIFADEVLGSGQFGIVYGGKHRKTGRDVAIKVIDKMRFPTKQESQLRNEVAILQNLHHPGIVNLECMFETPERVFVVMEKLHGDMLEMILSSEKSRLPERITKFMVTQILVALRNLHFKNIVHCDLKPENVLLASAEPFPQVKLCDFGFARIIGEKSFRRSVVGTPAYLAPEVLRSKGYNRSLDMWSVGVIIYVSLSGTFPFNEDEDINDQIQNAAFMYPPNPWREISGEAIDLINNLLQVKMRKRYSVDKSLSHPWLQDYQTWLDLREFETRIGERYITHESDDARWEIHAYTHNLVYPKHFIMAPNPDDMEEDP", "test": "Selectivity interaction (KinomeScan (DiscoverX)) EUB0001049a PRKD3", "details": "at 1 µM"}, "[3]": {"molecular_target": "T2, Ephrin type-B receptor 1 (Homo sapiens) (UniProt P54762)", "T2 sequence (whole entry)": "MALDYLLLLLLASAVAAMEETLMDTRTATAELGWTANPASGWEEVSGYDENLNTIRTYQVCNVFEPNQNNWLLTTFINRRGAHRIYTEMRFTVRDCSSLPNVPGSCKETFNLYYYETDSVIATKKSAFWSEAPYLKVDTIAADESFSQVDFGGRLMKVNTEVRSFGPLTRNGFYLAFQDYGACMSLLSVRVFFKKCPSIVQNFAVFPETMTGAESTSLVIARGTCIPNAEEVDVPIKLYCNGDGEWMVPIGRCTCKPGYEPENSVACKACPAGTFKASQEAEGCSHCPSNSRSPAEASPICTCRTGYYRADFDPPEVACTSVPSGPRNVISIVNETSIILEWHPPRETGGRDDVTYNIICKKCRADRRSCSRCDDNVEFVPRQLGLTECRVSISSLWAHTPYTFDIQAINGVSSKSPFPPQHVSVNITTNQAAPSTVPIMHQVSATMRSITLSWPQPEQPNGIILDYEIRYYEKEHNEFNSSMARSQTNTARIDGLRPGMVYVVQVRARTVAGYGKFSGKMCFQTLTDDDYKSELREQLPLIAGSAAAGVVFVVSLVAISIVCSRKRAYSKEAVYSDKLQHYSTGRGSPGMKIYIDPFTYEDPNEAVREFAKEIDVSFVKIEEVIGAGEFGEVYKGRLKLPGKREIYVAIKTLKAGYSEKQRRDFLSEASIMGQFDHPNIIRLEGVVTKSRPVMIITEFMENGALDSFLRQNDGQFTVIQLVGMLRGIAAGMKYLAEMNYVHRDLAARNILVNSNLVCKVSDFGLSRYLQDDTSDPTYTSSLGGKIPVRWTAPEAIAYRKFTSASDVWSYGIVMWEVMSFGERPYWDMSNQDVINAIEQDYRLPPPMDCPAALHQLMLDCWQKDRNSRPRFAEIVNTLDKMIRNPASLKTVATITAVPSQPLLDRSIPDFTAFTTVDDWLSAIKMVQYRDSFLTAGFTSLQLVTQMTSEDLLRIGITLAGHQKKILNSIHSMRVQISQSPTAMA", "test": "Selectivity interaction (KinomeScan (DiscoverX)) EUB0001049a EPHB1", "details": "at 1 µM"}, "[4]": {"test_system": "Epidermal growth factor receptor (Homo sapiens), P00533 [L858R,T790M]", "test": "(§1) Selectivity interaction (ProQinase) EUB0000171b EGFR"}, "[5]": {"test_system": "Epidermal growth factor receptor (Homo sapiens), P00533 [G719C]", "test": "as §1"}, "[6]": {"test_system": "Epidermal growth factor receptor (Homo sapiens), P00533 [T790M]", "sequence (P00533 whole entry T790M)": "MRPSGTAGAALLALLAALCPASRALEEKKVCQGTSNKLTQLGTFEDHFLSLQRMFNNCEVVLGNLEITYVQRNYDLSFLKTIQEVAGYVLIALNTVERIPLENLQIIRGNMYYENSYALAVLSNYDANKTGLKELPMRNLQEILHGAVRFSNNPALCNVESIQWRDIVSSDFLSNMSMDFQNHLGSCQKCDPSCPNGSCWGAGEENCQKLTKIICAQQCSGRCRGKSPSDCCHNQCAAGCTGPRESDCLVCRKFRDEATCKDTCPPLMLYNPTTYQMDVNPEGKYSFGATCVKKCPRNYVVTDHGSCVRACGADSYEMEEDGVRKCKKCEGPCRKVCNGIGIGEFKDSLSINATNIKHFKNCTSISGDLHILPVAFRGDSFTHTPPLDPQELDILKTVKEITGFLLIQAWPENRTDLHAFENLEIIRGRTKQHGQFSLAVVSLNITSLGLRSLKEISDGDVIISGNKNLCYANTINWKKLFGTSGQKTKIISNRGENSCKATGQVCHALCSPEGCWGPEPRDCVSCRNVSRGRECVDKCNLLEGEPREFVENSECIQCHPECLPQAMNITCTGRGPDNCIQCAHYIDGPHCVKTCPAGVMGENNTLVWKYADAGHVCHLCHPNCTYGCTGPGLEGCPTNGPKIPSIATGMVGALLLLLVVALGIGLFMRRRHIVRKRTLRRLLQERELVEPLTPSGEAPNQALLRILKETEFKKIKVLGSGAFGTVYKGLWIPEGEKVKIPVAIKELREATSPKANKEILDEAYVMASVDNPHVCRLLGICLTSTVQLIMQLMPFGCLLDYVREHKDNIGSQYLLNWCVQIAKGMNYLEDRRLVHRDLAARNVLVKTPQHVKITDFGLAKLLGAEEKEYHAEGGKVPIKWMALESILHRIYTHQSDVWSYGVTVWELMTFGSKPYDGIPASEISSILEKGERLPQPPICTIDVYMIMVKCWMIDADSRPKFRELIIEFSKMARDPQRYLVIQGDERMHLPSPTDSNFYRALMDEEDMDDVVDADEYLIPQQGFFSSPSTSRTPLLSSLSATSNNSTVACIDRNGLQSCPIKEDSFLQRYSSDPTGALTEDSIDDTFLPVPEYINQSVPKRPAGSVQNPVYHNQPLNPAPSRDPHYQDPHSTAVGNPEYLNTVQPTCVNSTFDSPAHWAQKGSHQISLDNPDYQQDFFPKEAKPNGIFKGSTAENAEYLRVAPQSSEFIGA", "test": "as §1"}, "[7]": {"test_system": "Epidermal growth factor receptor (Homo sapiens), P00533 [L861Q]", "sequence (P00533 whole entry L861Q)": "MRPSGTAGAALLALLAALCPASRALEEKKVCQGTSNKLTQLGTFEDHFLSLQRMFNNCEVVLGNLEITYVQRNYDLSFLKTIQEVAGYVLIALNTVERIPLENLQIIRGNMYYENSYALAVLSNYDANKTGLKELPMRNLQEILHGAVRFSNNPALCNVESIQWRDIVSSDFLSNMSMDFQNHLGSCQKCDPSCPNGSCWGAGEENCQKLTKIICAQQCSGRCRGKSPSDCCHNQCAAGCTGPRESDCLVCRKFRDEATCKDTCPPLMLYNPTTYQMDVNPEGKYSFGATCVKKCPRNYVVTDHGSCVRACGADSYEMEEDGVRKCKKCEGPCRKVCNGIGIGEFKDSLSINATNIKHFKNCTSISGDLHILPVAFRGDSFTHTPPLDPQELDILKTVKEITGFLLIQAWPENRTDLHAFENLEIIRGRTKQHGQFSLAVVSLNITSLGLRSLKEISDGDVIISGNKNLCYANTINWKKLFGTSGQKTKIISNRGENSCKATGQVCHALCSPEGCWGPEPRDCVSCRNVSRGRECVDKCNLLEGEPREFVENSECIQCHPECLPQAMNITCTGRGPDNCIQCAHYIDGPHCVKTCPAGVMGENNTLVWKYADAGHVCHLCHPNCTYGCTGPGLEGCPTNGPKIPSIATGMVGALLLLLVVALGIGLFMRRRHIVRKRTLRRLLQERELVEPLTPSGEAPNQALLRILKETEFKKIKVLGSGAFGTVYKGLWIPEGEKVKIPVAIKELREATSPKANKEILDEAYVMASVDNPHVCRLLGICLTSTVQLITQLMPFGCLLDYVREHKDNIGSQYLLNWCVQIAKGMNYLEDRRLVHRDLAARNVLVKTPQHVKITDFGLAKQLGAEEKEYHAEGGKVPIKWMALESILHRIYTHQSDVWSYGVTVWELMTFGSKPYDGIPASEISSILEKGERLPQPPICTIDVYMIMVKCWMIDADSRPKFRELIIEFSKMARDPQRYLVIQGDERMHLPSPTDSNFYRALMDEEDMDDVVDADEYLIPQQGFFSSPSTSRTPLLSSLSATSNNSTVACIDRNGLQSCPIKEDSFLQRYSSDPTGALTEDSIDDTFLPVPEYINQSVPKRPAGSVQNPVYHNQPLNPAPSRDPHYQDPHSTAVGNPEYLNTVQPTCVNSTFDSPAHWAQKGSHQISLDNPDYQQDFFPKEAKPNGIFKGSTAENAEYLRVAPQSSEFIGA", "test": "as §1"}, "[8]": {"test_system": "Epidermal growth factor receptor (Homo sapiens), P00533 [UNDEFINED MUTATION]", "sequence (P00533 whole entry, looked up, change not shown)": "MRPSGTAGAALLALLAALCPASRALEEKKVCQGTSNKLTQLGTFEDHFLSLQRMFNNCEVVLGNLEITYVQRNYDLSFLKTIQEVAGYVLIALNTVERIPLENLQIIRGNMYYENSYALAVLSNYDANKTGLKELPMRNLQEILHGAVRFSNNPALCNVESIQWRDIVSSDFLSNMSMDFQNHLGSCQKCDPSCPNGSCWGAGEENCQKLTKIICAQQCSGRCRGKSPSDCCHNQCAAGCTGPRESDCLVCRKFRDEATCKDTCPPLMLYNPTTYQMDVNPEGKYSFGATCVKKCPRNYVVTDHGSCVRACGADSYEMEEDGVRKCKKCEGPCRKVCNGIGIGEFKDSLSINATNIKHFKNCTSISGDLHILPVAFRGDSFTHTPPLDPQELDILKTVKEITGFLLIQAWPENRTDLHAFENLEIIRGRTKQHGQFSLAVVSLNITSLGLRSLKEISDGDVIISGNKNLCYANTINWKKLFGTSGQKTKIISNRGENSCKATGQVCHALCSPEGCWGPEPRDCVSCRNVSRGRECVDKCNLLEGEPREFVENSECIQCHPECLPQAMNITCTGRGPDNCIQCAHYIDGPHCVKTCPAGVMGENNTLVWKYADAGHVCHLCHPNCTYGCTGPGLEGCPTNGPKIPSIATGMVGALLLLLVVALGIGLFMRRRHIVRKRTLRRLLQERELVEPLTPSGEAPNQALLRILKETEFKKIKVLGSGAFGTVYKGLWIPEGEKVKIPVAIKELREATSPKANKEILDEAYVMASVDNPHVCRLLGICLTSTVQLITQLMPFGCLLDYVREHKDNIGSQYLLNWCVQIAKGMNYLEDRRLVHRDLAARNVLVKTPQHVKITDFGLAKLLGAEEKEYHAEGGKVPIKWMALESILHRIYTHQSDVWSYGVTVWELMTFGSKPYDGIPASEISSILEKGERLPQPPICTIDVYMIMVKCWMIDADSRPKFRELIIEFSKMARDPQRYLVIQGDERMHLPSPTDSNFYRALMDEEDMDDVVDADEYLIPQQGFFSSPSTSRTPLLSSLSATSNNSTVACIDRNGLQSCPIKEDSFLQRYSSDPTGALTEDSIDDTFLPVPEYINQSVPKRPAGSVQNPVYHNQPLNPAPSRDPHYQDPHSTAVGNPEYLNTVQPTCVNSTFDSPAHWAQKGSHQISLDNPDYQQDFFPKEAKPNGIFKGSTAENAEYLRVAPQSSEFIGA", "test": "as §1"}, "[9]": {"molecular_target": "Epidermal growth factor receptor (Homo sapiens, UniProt P00533)", "sequence (P00533 whole entry)": "as the sequence (P00533 whole entry, looked up, change not shown) above", "test": "as §1"}, "[10]": {"test_system": "Epidermal growth factor receptor (Homo sapiens), P00533 [L858R]", "test": "as §1"}, "[11]": {"test_system": "Epidermal growth factor receptor (Homo sapiens), P00533 [G719S]", "test": "as §1"}, "[12]": {"molecular_target": "Calcium/calmodulin-dependent protein kinase type 1G (Homo sapiens) (UniProt Q96NX5)", "details": "at 10 µM"}}}
{"compound": "Cc1cc([C@@H](C)Nc2ccccc2C(=O)O)c2nc(N3CCOCC3)cc(=O)n2c1", "note": "[AZD-6482]", "values": [{"measurement": "% of control", "setting": "[1]", "value": 100, "unit": "%"}]}
{"compound": "COc1cc(Nc2nc(C)cc(-c3cnn4nc(OC)ccc34)n2)cc(C(F)(F)F)c1", "values": [{"measurement": "% of control", "setting": "[2]", "value": 100, "unit": "%"}, {"measurement": "% of control", "setting": "[3]", "value": 85, "unit": "%"}]}
{"compound": "C=CC(=O)Nc1cccc(C(=O)Nc2ccc(Nc3cc(-c4[nH]c(SC)nc4C)ccn3)cc2)c1", "values": [{"measurement": "% of control", "setting": "[4]; at 1 µM", "value": 96, "unit": "%"}, {"measurement": "% of control", "setting": "[4]; at 5 µM", "value": 96, "unit": "%"}, {"measurement": "% of control", "setting": "[5]; at 1 µM", "value": 96, "unit": "%"}, {"measurement": "% of control", "setting": "[5]; at 5 µM", "value": 75, "unit": "%"}, {"measurement": "% of control", "setting": "[6]; at 1 µM", "value": 91, "unit": "%"}, {"measurement": "% of control", "setting": "[6]; at 5 µM", "value": 84, "unit": "%"}, {"measurement": "% of control", "setting": "[7]; at 1 µM", "value": 104, "unit": "%"}, {"measurement": "% of control", "setting": "[7]; at 5 µM", "value": 91, "unit": "%"}, {"measurement": "% of control", "setting": "[8]; at 1 µM", "value": 115, "unit": "%"}, {"measurement": "% of control", "setting": "[8]; at 5 µM", "value": 88, "unit": "%"}, {"measurement": "% of control", "setting": "[9]; at 1 µM", "value": 108, "unit": "%"}, {"measurement": "% of control", "setting": "[9]; at 5 µM", "value": 101, "unit": "%"}, {"measurement": "% of control", "setting": "[10]; at 1 µM", "value": 95, "unit": "%"}, {"measurement": "% of control", "setting": "[10]; at 5 µM", "value": 83, "unit": "%"}, {"measurement": "% of control", "setting": "[11]; at 1 µM", "value": 88, "unit": "%"}, {"measurement": "% of control", "setting": "[11]; at 5 µM", "value": 97, "unit": "%"}]}
{"compound": "CCN(CC)CCCCNc1ncc2cc(-c3cc(OC)cc(OC)c3)c(NC(=O)NC(C)(C)C)nc2n1", "values": [{"measurement": "% of control", "setting": "[12]", "value": 100, "unit": "%"}]}
